From US20100062465A1, “Detection of Histone Deacetylase Inhibition” (priority 2006, published 2010)
Structures can show the parent of a compound that is named as a salt.

Experiments:
[1] = In vivo toxicity of BLT after intraperitoneal injection; conditions: intraperitoneal 100 mg/kg once a week on three subsequent weeks
[2] = system: PC3 human prostate cancer cells; test: WST-1 cell proliferation assay; type: cell-based
Description: PC3 human prostate cancer cells were routinely cultured in DMEM/F12 (Gibco NY USA) supplemented with 10% FCS (Hyclone, Utah USA) and 10,000 U/mL penicillin 10,000 μg/mL streptomycin and […] amphtenicin B (Gibco, NY USA) at 37° C. in 5% CO2.
To assess the effect on cell proliferation of BLT the colorimetric WST-1 cell proliferation assay (Roche USA) was used and manufacturer instructions followed. Briefly, 20×10^3 cells/well were seeded in 96 well plates. Cells were then treated for 24 hours with BLT at 5 μM, 10 μM, 20 μM, 50 μM, 100 μM, 200 μM, 500 μM, 1 mM, 2 mM, 5 mM and 10 mM or with matched DMSO (1.20,000 to 1.10). Subsequently cells were incubated for 4 hours with the WST-1 cell proliferation reagent and absorbance read at 440 nm using a Tecan Freedom Evo liquid handler equipped with the SAFIRE monochromator-based microplate reader (Tecan U.S., NC, USA).
(§1) Note that controls were treated with DMSO in order to clearly identify effects which are due to the compound being investigated rather than its vehicle (DMSO). FSAHA dose was based on previous findings (Butler L M, Agus D B, Scher H I, et al. Suberoylanilide hydroxamic acid, an inhibitor of histone deacetylase, suppresses the growth of prostate cancer cells in vitro and in vivo. Cancer Res 2000 September 15;60(18):5165-70).

subcutaneous PC3 tumors = test: In vivo 19F MRS of BLT in subcutaneous PC3 tumors; conditions: intraperitoneal 100 mg/kg, 4.7 T
Description: As expected, the TFA peak could not be easily resolved in our preliminary in vivo studies. Intratumoral BLT levels may be higher in HDACI-treated tumors compared to controls, and therefore tumoral BLT levels may be used to assess HDAC activity in vivo. Downstream metabolic biomarkers also may be assessed in our preliminary studies. We were able to acquire a ^31P spectrum from PC3 subcutaneous tumors in 30 minutes providing a means for monitoring PC levels. This is consistent with previous studies in which an increase in PC could be monitored as an indicator of response to 17AAG treatment. ^1H MRS, with its greater sensitivity compared to ^31P, could also be used to monitor the total choline signal as a downstream metabolic marker of response to HDAC inhibition.

[3] = Solubility in growth medium; type: physicochemical; conditions: dissolved in DMSO first
Description: as §1

recombinant HDAC8 = molecular target: T1, recombinant HDAC8 (Homo sapiens, UniProt Q9BY41); test: 19F MRS study of BLT cleavage by recombinant HDAC8; type: biochemical; conditions: 0.6 mM BLT, 28U HDAC-8
T1 construct: purchased Biomol
T1 sequence (Q9BY41 1-377): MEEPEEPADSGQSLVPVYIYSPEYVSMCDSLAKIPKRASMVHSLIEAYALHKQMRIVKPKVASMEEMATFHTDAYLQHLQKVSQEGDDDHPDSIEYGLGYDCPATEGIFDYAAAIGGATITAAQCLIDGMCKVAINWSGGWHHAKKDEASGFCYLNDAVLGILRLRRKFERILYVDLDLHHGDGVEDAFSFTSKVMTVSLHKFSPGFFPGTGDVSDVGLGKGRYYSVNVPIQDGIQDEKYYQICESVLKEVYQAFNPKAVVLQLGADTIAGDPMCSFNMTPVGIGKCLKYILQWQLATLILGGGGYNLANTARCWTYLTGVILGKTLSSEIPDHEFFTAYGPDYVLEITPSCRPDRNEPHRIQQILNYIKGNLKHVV
Description: To confirm that MRS can be used to monitor cleavage of the HDAC substrate, 0.6 mM BLT (Advance Chem-Tech, KY USA) was incubated alone or with 28U recombinant HDAC-8 (Biomol PA) in a total volume of 500 μl HDAC assay buffer (Biomol PA. USA, composed of 25 mM Tris/Cl, 137 mM NaCl, 2.7 mM KCl, 1 mM MgCl2 and formulated to maintain HDAC activity). ^19F MRS was used to monitor the decrease in BLT and buildup of the cleavage product trifluoroacetate (TFA) by acquiring ^1H decoupled spectra at 10 min intervals on an Avance DPX 300 Bruker spectrometer (Bruker Biospin, Germany) using a 30 deg. flip angle, 3 s relaxation delay and 128 scans. A sealed insert containing C6F6 served as a quantification and chemical shift reference (−164.9 ppm relative to CFCl3).

Hsp70 = test: Western blot analysis of protein levels; type: cell-based, human; conditions: PC3 cells, 10 μM FSAHA in the presence of 1 mM BLT
Description: (§2) PC3 cells were lysed using cell lysis buffer (0.1% NP-40, 50 mM HEPES (pH 7.4), 250 mM NaCl, 1 mM dithiothreitol, 1 mM EDTA, 1 mM NaF, 10 mM β-glycerophosphate, 0.1 mM sodium orthovanadate, 1 μl/ml of protease inhibitor cocktail set III (Calbiochem, USA) and 1 mM phenylmethylsulfonyl fluoride). Lysates were centrifuged at 12,000 rpm for 10 min (4° C.), the protein supernatant collected and total protein concentrations determined using Biorad DC Protein assay reagents (Biorad, CA, USA). Proteins were separated by sodium do-decyl sulfate-polyacrylamide gel electrophoresis using 10% gels and transferred electrophoretically to 0.45 μm Nitrocellulose membranes. Membranes were blocked in blocking buffer containing 5% non-fat dry milk in Tris buffered saline (pH 7.6) and 0.1% Tween-20 and incubated overnight at 4° C. with primary antibodies as follows. c-Raf, 1:1000, (Cell Signaling Technology (CST), MA, USA), Cdk4, 1:2000 (CST, MA, USA), Hsp70, 1:2000 (Stressgen, Canada) and GAPDH, 1:5000 (Stressgen, Canada). This was followed by 1 hour incubation with horseradish peroxidase-conjugated secondary anti-rabbit (CST MA, USA) and anti-mouse (CST, MA, USA) antibodies at dilutions of 1:1000 and 1:2000 respectively. Membranes were […] with enhanced chemiluminescence reagents (LumiGLO & Peroxide, CST MA. USA) for 1 minute and exposed to hyperfilm (Amersham Biosciences, USA), which was developed on a Konica SRX-101 automatic developer (Konica, Tokyo, Japan).

c-Raf-1 = test: Western blot analysis of protein levels; type: cell-based, human; conditions: PC3 cells, 10 μM FSAHA in the presence of 1 mM BLT
Description: as §2

cdk4 = test: Western blot analysis of protein levels; type: cell-based, human; conditions: PC3 cells, 10 μM FSAHA in the presence of 1 mM BLT
Description: as §2

Row | SMILES | Toxicity to the animal [1] | Effect on cell proliferation compared to matched DMSO controls ([2]; 5 μM to 10 mM, 24 hours) | activity at 1000 µM ([2]; Homo sapiens, PC-3, 24-hour treatment with 1 mM BLT, read-out: Cell numbers, % of controls) [%] | Time the BLT signal remained detectable within the tumor region (subcutaneous PC3 tumors) | MRS detectability in tumor (subcutaneous PC3 tumors; temporal resolution 5 minutes) | Solubility in growth medium [3] | Cleavage by recombinant HDAC8 monitored by 19F MRS (recombinant HDAC8) | Cell proliferation relative to control ([2]; 2 μM) [%] | Cell proliferation relative to control ([2]; 2 μM in the presence of 1 mM BLT) [%] | Cell proliferation relative to control ([2]; 5 μM) [%] | Cell proliferation relative to control ([2]; 5 μM in the presence of 1 mM BLT) [%] | Cell proliferation relative to control ([2]; 10 μM) [%] | Cell proliferation relative to control ([2]; 10 μM in the presence of 1 mM BLT) [%] | Induction of Hsp70 (Western blot) (Hsp70) | c-Raf-1 protein level (Western blot) (c-Raf-1) | cdk4 protein level (Western blot) (cdk4)
1 | CC(C)(C)OC(=O)N[C@@H](CCCCNC(=O)C(F)(F)F)C(=O)O [BLT, Boc-Lys-TFA-OH] | no detectable toxicity | did not significantly affect cell proliferation | 95 ± 4 | over 2 hours | MRS visible BLT signal | low solubility | substrate of HDAC8 | – | – | – | – | – | – | – | – | –
2 | O=C(CCCCCCC(=O)Nc1ccc(F)cc1)NO [FSAHA, 4-Fluorosuberanilohydroxamic acid] | – | – | – | – | – | – | – | 87±5 | 86±1 | 79±3 | 77±7 | 66±6 | 63±2 | not observed | depletion | depletion
